According to US20150148417A1, “SYNTHESIS AND BIOLOGICAL STUDIES OF AN ISOMERIC MIXTURE OF (E/Z) ISOXYLITONES AND ITS ANALOGUES” (priority 2013, published 2015):
Entries after “also recorded” stand apart in the source; their conditions may differ.

Legend:
[1] = tested on: PTZ-induced seizures; assay: Subcutaneous pentylenetetrazole (scPTZ)-induced acute seizure test; assay type: in vivo, mice; details: for mortality: acute scPTZ-induced mortality test
Experimental: Subcutaneous Pentylenetetrazole (scPTZ) Seizure Model (Acute Seizures Model)
Anticonvulsant effects of isoxylitones using scPTZ acute seizure test was evaluated by administering three doses i.e. 15, 20, and 30 mg/kg to groups of six mice, at least 30-40 min before subcutaneous administration of convulsive doses of PTZ (90 mg/kg). After administering PTZ, the mice were isolated and placed separately in a clear plexiglass chamber and closely observed for an hour for the presence or absence of different types of seizure patterns i.e. onset of body twitches, threshold seizures, generalized seizures with loss of righting reflex, loss of righting reflex with tonic forelimb seizures, loss of righting reflex with tonic forelimb and hind limb seizures (Table 1). The protection from PTZ-induced mortality was also monitored within 24 hours. In all experiments, diazepam (7.5 mg/kg i.p.) was used as a drug control.
Subcutaneous Pentylenetetrazole-Induced Seizure Test (scPTZ-Induced Acute Seizures Model): […]

[2] = tested on: scPTZ-induced kindling; assay: scPTZ-induced chemical kindling model of epileptogenesis; assay type: in vivo, mice; details: PTZ 50 mg/kg on alternate days
Experimental: Once screened in the acute seizure model, we next evaluated the effect of test compound on the development on epilepsy process using chemical kindling model of NMRI mice. […] The kindling was induced according to the modified method of De Sarro [23]. Each treatment group consists of 12 male NMRI mice ranging from 20-25 g. All the groups except normal control were given sub-convulsive dose of PTZ i.e., 50 mg/kg subcutaneously once on alternate day between 9:30-11:00 am. The normal control and drug control groups received daily intraperitoneal dose of saline (0.5 mL of 0.9% NaCl) and diazepam (7.5 mg/kg) respectively. Likewise, the test group was administered with the isoxylitones mixture (30 mg/kg, i.p.) once daily. On the day of PTZ administration, the treatment of saline, diazepam or isoxylitones were given 30-40 minutes before the PTZ. After each PTZ injection, animals were placed in observation chambers for 1 hour, and behavioral seizure activity was rated. Animals were scored according to a pre-validated scoring scale for the severity of the seizure activity they show. Seizure patterns during the gradual development of kindling are classified into five distinct behavioral stages as shown in the Table 1. The cumulative kindling score was then calculated and the experiments were terminated once the PTZ-control group reached the score 5. […]

[3] = tested on: BDNF protein expression; assay: BDNF immunohistochemistry in brain samples of chemically kindled mice; assay type: in vivo; details: for BDNF immunoreactivity in hippocampus and cortex: vs PTZ kindled group; for cumulative BDNF immunoreactivity (ImageJ): vs PTZ kindling
Experimental: Brain samples from chemically kindled mice (as described above) were collected immediately after the last treatment of animals with PTZ. Mice were deeply anesthetized and transcardially perfused with ice-cold 50 mL solution containing phosphate buffer saline (PBS) and heparin [1 mL (5000 I.U.) of heparin added for 500 mL of PBS]. Brains were removed from cranial cavity and were gently rinsed in cold PBS. After washing, they were fixed in ice cold 4% paraformaldehyde solution for 24 hr at 4° C. These samples were then placed in a cryoprotectant i.e. 30% sucrose in PBS until they sank to the bottom of the container. The samples were subsequently stored at −80° C. until further processing. Cryostat sagittal sections were prepared using cryostat (Thermo Electron Corporation, UK), frozen brain sections of 30-μm thickness were cut at −20° C. and collected directly on poly-lysine coated slides. At the time of processing, the cryosections were kept overnight in a humid chamber at room temperature containing PBS buffer. […] On the following day, the sections were re-hydrated by rinsing three times (5 min/rinse) with PBS buffer, followed by incubation in blocking solution (pre-filtered with syringe filter of […] size, consisting of 2% bovine serum albumin (BSA), 2% normal goat serum and 0.1% Tween-20) for 30 min at 37° C. For BDNF IHC, the sections were incubated overnight at 4° C. with the BDNF (N-20) primary antibody sc-546 rabbit IgG (Santa Cruz Biotechnology Inc., USA). Following overnight incubation in the primary antibody, sections were washed three times in PBS and then were incubated with secondary antibody, i.e. Alexa Fluor® 546 goat anti-rabbit IgG secondary antibody (1:100 dilution) from Invitrogen (Life Technologies, NY, USA) for 30 min at 37° C. in the dark, followed by a final washing step with PBS. Negative control slides were prepared without primary antibody to rule out the non-specific tissue binding of antibodies. The stained sections were observed under fluorescent microscope (Nikon ECLIPSE TE2000-S).
The schematic diagrams of brain sections adapted from the mouse brain atlas were used as a visual guide for determining the sub-region boundaries. The image processing program ImageJ (National Institutes of Health, MD, USA) was used to analyze the images. This software helps in multiple imaging system data comparisons, taking density (densitometry) in consideration. For each image, background density was determined and subtracted; the remaining particles were considered to represent BDNF expression. Data were obtained from two sections per […] (n=12 animals per group) and presented as means±S.E.M BDNF immunoreactivity in the amygdala, cortex, dorsal hippocampus and thalamus were centered approximately around 3.6 mm posterior to bregma. Within the hippocampus region, measurements were performed over the layer extending from sub-regions CA1-CA3.

[4] = tested on: SD rats; assay: Repeated daily dosing toxicity study, 15, 30 and 90 days; assay type: in vivo; details: 30 mg/kg daily
Experimental: The effective dose of isoxylitones i.e. 30 mg/kg was used in this study. The test was performed in SD rats. The animals divided into three groups and were daily administered with isoxylitones. The first group was sacrificed at the end of 15 days. The second group was sacrificed after 30 days and third group was sacrificed after 90 days. […] At the end, blood was taken via cardiac puncture for biochemistry. Gross anatomical observations were also made for organs as liver, spleen, kidney, heart, and lung and spleen and to examine the organ abnormalities.
The serum levels total bilirubin, GPT, GOT, alkaline phosphatase, and LDH was estimated.

[5] = tested on: mice; assay: Acute toxicity (Lorke's test) with gross behavioral observation; assay type: in vivo
Experimental: The isoxylitone was tested for acute toxicity (LD50) using Lorke's test. This method provides the acute toxicity data with the least consumption of animals i.e. initially only 12 animals are required; on obtaining the dose causing the death in 50% animals further three more animals is used at the same dose to get the data statistically significant. Briefly, animals were given different doses of isoxylitone i.e., 50 mg/kg, 75 mg/kg, 100 mg/kg, 500 mg/kg and 1000 mg/kg. After 24 and 48 hours, the maximum dose that had not induced mortality was considered as the maximum non-fatal dose. LD50 values and the corresponding confidence intervals were determined by the Litchfield and Wilcoxon methods (SPSS, version, USA). Data were expressed as mean values±SEM and tested with ANOVA and Tukey-Kramer tests.
They were observed continuously for 2 hours after administration of the test compounds and then every 30 minutes for next 3 hours and finally after 24 hours. The CNS stimulation was judged by the following signs and symptoms:
Locomotor activity, ataxia, clonic & tonic convulsions, sedation, catalepsy, crouching, lacrimation, salivation or any other signs which deviate from the normal behavior of the animal under observation.

[6] = tested on: c-Fos protein and mRNA expression; assay: c-Fos protein and mRNA expression in brain samples of kindled mice; assay type: in vivo; details: 30 mg/kg; compared to PTZ-kindled control animals
Source text: Recently we have evaluated the effects of novel anticonvulsant isomeric compounds isoxylitones on the c-Fos protein and mRNA expression in the brain samples of kindled mice and compared it with the normal and untreated kindled groups.

[7] = tested on: mice; assay: Behavioral analysis (Turner scoring); assay type: in vivo; details: 30 mg/kg, 50 mg/kg and 100 mg/kg
Experimental: The behavioral analysis was performed adopting the modified procedure as described by Turner, 1972. The effects were recorded using a scoring system (scores were allocated according to the intensity of the symptoms from 0-4) as described by Turner i.e. for stereotype behavior 0: no effect; 1: intermittent; 2: continues 3: intense; 4: severe and for spontaneous activity 0: reduced activity; and 4: increased activity. Animals were transferred into individual cages to allow them to acclimatize to the new environment prior to the experiment.
Blind-testing was employed i.e., the experimenter conducting this study was blinded to the treatment given to the animals in order to avoid any biased interpretations.

[8] = tested on: mice; assay: Inverted screen acute neurotoxicity test; assay type: in vivo; details: 15, 20, 30, 50, 100 mg/kg i.p.; 5, 30, 60, 120 minutes
Experimental: The neurotoxic manifestation of isoxylitone was determined by inverted screen acute neurotoxicity test developed by Coughenour et al. in 1977. The apparatus consisted of six 13 cm square platforms of 0.6 cm wire mesh supported by metal bars mounted on a metal rod. The rod was supported at both ends and was inverted through an arc of 180°. Mice were pretested on the apparatus the day preceding the experiment, and those failing the task were not used for the subsequent drug test. Testing was carried out at 5, 30, 60 and 120 minutes following i.p. administration of 15 mg/kg, 20 mg/kg, 30 mg/kg, 50 mg/kg and 100 mg/kg of isoxylitone in groups of 6 mice. Mice unable to climb to an upright position for 1 min duration were rated as failures.

[9] = diazepam 7.5 mg/kg i.p. before PTZ 90 mg/kg s.c.
[10] = isoxylitones 15 mg/kg i.p. before PTZ 90 mg/kg s.c.
[11] = isoxylitones 20 mg/kg i.p. before PTZ 90 mg/kg s.c.
[12] = isoxylitones 30 mg/kg i.p. before PTZ 90 mg/kg s.c.

For `CN1C(=O)CN=C(c2ccccc2)c2cc(Cl)ccc21` [Diazepam, diazepam, reference compound], the “Hind Limb Tonic Extension (HLTE)” value [1, 9] was 0 s, the Mortality protection [1, 9] was 100% and the Onset of jerks [1, 9] was 850 ± 20 s. The “Rearing & falling” value [1, 9] was 0 s, the “development of kindling (seizure pattern)” value ([2]; diazepam 7.5 mg/kg daily) was “did not exhibit any seizure pattern till the end of the kindling protocol” and the “BDNF immunoreactivity in hippocampus and cortex” value ([3]; diazepam 7.5 mg/kg) was “reduced the levels to controls; also recorded: markedly reduced the immunoreactivity”. The “cumulative BDNF immunoreactivity (ImageJ)” value ([3]; diazepam 7.5 mg/kg) was “significantly suppressed”.

With isoxylitones the mortality or morbidity [4] was “No mortality or morbidity”, the “signs of toxicity / gross behavioral effects” value ([5]; 250 mg/kg, approximately 20 minutes after injection) was “mild cramps and abdominal stretching” and the “signs of toxicity / gross behavioral effects” value ([5]; 500 mg/kg) was “signs of discomfort and mild toxicity; also recorded: Ataxia, complete sedation and drowsiness”. The “signs of toxicity / gross behavioral effects” value ([5]; 1000 mg/kg) was “complete ataxia and sedation”, the “animals showing signs of toxicity or altered behavior” value ([5]; 50 and 100 mg/kg, over 24 hours) was “None of the animals” and the “protection from PTZ-induced loss of righting reflex with tonic-forelimb and tonic hind-limb seizures” value ([1]; 30 mg/kg) was 100%. The “prevention of PTZ-induced myoclonic twitches” value ([1]; 15 and 20 mg/kg) was “effectively prevent PTZ-induced myoclonic twitches”, the “protection from PTZ-induced seizure threshold” value ([1]; 15 and 20 mg/kg) was “unable to provide complete protection” and the “anticonvulsant activity in vivo models” value ([1]; compounds shown in FIG. 1) was “strong anticonvulsant activity”. The Onset of jerks ([1]; isoxylitones 15 mg/kg i.p. 40-50 min before PTZ 90 mg/kg s.c., mean ± SEM) was 440 ± 55 s, the “Hind Limb Tonic Extension (HLTE)” value [1, 10] was 1260 ± 20 s and the Mortality protection [1, 10] was 66.7%. The “Rearing & falling” value [1, 10] was 990 ± 33 s, the mortality ([1]; isoxylitones 15 mg/kg) was 33.3% and the “Hind Limb Tonic Extension (HLTE)” value [1, 11] was 0 s. The Mortality protection [1, 11] was 100%, the Onset of jerks [1, 11] was 580 ± 21 s and the “Rearing & falling” value [1, 11] was 1120 ± 40 s. For the same molecule, the mortality ([1]; isoxylitones 20 mg/kg) was 20.8%, the “Hind Limb Tonic Extension (HLTE)” value [1, 12] was 0 s and the Mortality protection [1, 12] was 100%. The Onset of jerks [1, 12] was 900 ± 150 s, the “Rearing & falling” value [1, 12] was 0 s and the mortality ([1]; isoxylitones 30 mg/kg) was 0%. The “protection from different seizure patterns of PTZ-induced seizures (twitches, body jerks, clonus, generalized seizure)” value ([1]; isoxylitones given prior to PTZ, 15, 20, 30 mg/kg) was “dose-related protection”, the c-Fos expression [6] was “significant reduction of c-Fos expression” and the “spontaneous motor activity and behavioral signs (ataxia, abdominal contractions, emesis, hyper-excitability, hyper-locomotion, twitches)” value [7] was “no alteration in the spontaneous motor activity”. For the same molecule, the “development of kindling (seizure score)” value ([2]; isoxylitones 30 mg/kg i.p. once daily, 18 doses, 34 days) was “did not exhibit seizure score until the end of the kindling experiment; also recorded: complete inhibition in the development of kindling”, the “BDNF immunoreactivity in hippocampus and cortex” value ([3]; isoxylitones 30 mg/kg) was “returned the enhanced BDNF immunoreactivity from PTZ kindling to the normal control levels” and the “BDNF immunoreactivity in hippocampus and cortex” value ([3]; isoxylitones 30 mg/kg, listed as isoxylitones) was “returned the BDNF levels to normal levels”. The “cumulative BDNF immunoreactivity (ImageJ)” value ([3]; isoxylitones 30 mg/kg) was “significantly suppressed” and the “acute neurotoxicity (motor function)” value [8] was “did not show sign of acute neurotoxicity”.
